In patent publication US20100028465A1, “COMPOSITION FOR AMELIORATING CEREBRAL FUNCTION” (priority 2007, published 2010):
Entries after “also recorded” stand apart in the source; their conditions may differ.

Legend:
[1] = system: intracerebral monoamines: norepinephrine (NE), 5-hydroxyindole acetic acid (5-HIAA); experiment: Monoamine content in cerebral cortex and hippocampus of memory disorder model rats (HPLC-ECD); assay type: in vivo, rat; conditions: 1 mg/kg/day oral, day 14
Protocol: Then, the increase and decrease in the concentrations of those intracerebral substances in rats of each group in Example 2 were measured.
That is, the brains of the memory disorder model rats prepared in Example 2 were extirpated and the contents of the monoamines in the cerebral cortex and hippocampus were measured.
On day 14 after administration, 5 rats each in 5 groups of the ibotenic acid-untreated group, non-administration control group, low dose ASL group, high dose ASL group, and positive control group in Example 2 were decapitated with a decapitation machine and the brains were taken out. The brains were put in an ice-cold physiological saline (Otsuka Pharmaceutical Co., Ltd.). Next, the brains were taken out and the cerebral cortex and hippocampus were then taken from the divided brains and the contents of the monoamines and a metabolite thereof were measured. The measurement method is shown in (a) to (c) below.
0.2 N […] solution was added to a brain sample in a container, and thereafter, an internal standard solution was added thereto, followed by homogenizing with a homogenizer. After being ice-cooled for 60 minutes or more, the resultant was centrifuged with a refrigerated centrifuge (about 4° C., 13,800 rpm, 5 minutes), and the supernatant was used as a measurement sample.
Mobile phase: a mixture containing 0.1 mol/Lacetic acid-citric acid buffer (pH 3.5), methanol, 100 mg/ml sodium 1-octane sulfonate solution, and 5 mg/ml EDTA·2·Na solution at a ratio of 830:170:1.85:1

[2] = system: memory disorder model rats with defect in the cholinergic neuron (ibotenic acid); experiment: Morris water maze test (acquisition and probe trials) in memory disorder model rats; assay type: in vivo, rat
PC-12 cell = experiment: Neurite extension / differentiation of PC-12 cell (differentiated cell ratio); assay type: cell-based; conditions: Example 6, non-addition 9.85
Description: Regarding three fractions purified in Example 4, i.e. the fraction 1 (containing N-acylsphinganine), the fraction 2 (containing the hopanoids), and the fraction 3 (containing sphinganine and the amino lipids), the absence or presence of an action of extending and differentiating the neurite as a neurotrophic factor-like action was confirmed using PC-12 cell as a neural model cell.
Note that, in the same manner as in Example 4, 10 g of the alkali-stable lipid was loaded into a silica gel column equilibrated with chloroform. The column was washed with a solvent prepared by mixing chloroform and acetic acid at a volume ratio of 100:1, and eluted with a solvent having a ratio of chloroform to methanol of 2:1, whereby a fraction containing all of the constituent lipids of the fraction 1, fraction 2, and fraction 3 was prepared. The fraction was used as an alkali-stable lipid fraction not containing a fatty acid. Then, the presence or the absence of the action of extending and differentiating the neurite was confirmed similarly.
PC-12 cell (RCB0009) purchased from RIKEN BIORESOURCE CENTER was used. […]
After that, the resultant was cultured at 37° C. and under 5% CO2 for 48 hours. […] The total number of cells and the number of the differentiated cells in the viewing area were counted. […] Then, the average of 10 photographs in which the numbers were counted was calculated. […]

Compound | 5-HIAA content in hippocampus [1] | 5-HIAA content in cerebral cortex ([1]; hydrochloride) | NE content in cerebral cortex ([1]; hydrochloride) | NE content in hippocampus ([1]; hydrochloride) | escape latency in acquisition trials vs non-administration control group ([2]; 1 mg per 1 kg rat weight per day, oral, trials day 10 to 13) | escape latency in the seventh trial vs non-administration control group (Steel's test, p<0.05) ([2]; 1 mg/kg/day oral) | retention time in the fourth quadrant in probe trial ([2]; 1 mg/kg/day oral, day 14) | number of crossings of platform location in probe trial vs non-administration control group ([2]; 1 mg/kg/day oral, day 14, p<0.05 Steel's test) | Differentiated cell ratio (%) of PC-12 cell 48 hours after addition (PC-12 cell; addition concentration 5 μg/ml) | Differentiated cell ratio (%) of PC-12 cell 48 hours after addition (PC-12 cell; addition concentration 25 μg/ml)
Cl.Nc1c2c(nc3ccccc13)CCCC2 [positive control, 9-amino-1,2,3,4-tetrahydroacridine hydrochloride] | increasing tendencies | increasing tendencies; also recorded: recovered to the level close to those of the ibotenic acid-untreated group | increasing tendencies; also recorded: recovered to the level close to those of the ibotenic acid-untreated group | increasing tendencies; also recorded: recovered to the level close to that of the ibotenic acid-untreated group | tended to be short | no significant difference | did not tend to be long | significant increase |  | 
CCCCCCCCCCCCCCC[C@@H](O)[C@H](CO)NC(=O)C(O)CCCCCCCCCCCCCC (stereo partly shown) [N-2′-hydroxypalmitoyl-sphinganine] |  |  |  |  |  |  |  |  | 19.49% | 17.44%
